Test results: patent US6369070B1, “Methods for inhibiting mrp1” (Eli Lilly and Company, priority 1998, dated 2002)

Legend:
[1] = molecular target: T1, MRP1 (Homo sapiens, UniProt P33527); test: Reversal of MRP1-mediated doxorubicin resistance in HL60/ADR cells; assay type: cell-based; conditions: HL60/ADR cells (printed EL60/ADR), oncolytic alone at the tested concentration
T1 construct: HL60/ADR and HL60/VCR are continuous cell lines, which were selected for doxorubicin and vincristine resistance respectively; endogenous in cells; host or cells: HL60/ADR (doxorubicin-selected HL60 human acute myeloblastic leukemia cells)
Protocol: (§1) Assay for Reversal of MRP1-Mediated Doxorubicin Resistance and MDR1-Mediated Vincristine Resistance: HL60/ADR and HL60/VCR are continuous cell lines, which were selected for doxorubicin and vincristine resistance respectively by culturing HL60, a human acute myeloblastic leukemia cell line, in increasing concentrations of doxorubicin or vincristine until a highly resistant variant was attained.
(§2) HL60/ADR and HL60/VCR cells were grown in RPMI 1640 (Gibco) containing […] (FBS) and 250 μg/ml GENTAMICIN™ (Sigma). Cells were harvested; washed twice with assay medium (same as culture media); counted; and diluted to 2×10^5 cells/ml in assay medium. Fifty microliters of cells were aliquoted into wells of a 96 well tissue culture plate. One column of each 96 well plate served as a negative control and received assay medium containing no cells.
(§3) Test compounds and reference compounds were dissolved in dimethyl sulfoxide (DMSO) at a concentration of 5 mM. Samples were diluted to 20 μM in assay medium and 25 μl of each test compound was added to 6 wells. Assay standards were run in quadruplicate. Twenty-five microliters of 0.4% DMSO was added to four wells as a solvent control.

[2] = molecular target: T2, MDR1 (Homo sapiens, UniProt P08183); test: Reversal of MDR1-mediated vincristine resistance in HL60/VCR cells; assay type: cell-based; conditions: oncolytic alone at the tested concentration
T2 construct: HL60/ADR and HL60/VCR are continuous cell lines, which were selected for doxorubicin and vincristine resistance respectively; endogenous in cells; host or cells: HL60/VCR (vincristine-selected HL60 human acute myeloblastic leukemia cells)
Protocol: as §1, §2, §3

T2 sequence (P08183 whole entry): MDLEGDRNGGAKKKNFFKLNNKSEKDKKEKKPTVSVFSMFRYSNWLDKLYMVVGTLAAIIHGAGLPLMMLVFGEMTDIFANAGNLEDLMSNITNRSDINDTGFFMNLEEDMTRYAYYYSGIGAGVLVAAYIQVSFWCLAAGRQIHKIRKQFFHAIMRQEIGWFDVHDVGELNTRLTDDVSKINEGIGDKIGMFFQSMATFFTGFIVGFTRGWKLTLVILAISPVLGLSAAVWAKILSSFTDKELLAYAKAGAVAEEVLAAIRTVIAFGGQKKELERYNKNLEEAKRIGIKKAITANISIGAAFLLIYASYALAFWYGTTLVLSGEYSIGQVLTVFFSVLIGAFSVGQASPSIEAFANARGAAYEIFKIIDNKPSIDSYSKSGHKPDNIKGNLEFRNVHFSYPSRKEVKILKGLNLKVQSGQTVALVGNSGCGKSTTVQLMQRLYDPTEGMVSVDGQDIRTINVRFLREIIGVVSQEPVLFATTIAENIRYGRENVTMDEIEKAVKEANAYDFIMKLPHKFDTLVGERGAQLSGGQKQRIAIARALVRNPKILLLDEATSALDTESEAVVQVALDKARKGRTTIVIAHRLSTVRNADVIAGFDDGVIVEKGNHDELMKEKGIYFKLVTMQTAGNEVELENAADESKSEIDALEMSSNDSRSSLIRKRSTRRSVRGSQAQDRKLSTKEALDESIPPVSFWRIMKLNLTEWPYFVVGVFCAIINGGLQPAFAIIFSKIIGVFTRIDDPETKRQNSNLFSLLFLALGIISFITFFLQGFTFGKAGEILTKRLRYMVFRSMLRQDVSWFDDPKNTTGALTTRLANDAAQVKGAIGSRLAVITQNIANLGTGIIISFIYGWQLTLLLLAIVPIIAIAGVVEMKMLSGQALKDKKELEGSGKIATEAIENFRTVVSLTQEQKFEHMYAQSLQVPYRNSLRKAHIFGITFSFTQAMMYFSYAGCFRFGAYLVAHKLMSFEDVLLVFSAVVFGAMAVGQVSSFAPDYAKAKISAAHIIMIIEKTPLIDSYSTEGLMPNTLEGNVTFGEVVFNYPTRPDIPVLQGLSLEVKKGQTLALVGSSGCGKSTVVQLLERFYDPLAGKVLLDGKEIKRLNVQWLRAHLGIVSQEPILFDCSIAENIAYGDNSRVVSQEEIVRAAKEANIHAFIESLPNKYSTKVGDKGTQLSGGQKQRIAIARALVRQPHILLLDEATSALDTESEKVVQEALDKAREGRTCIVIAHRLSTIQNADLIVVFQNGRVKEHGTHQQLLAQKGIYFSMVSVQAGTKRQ
T1 sequence (P33527 whole entry): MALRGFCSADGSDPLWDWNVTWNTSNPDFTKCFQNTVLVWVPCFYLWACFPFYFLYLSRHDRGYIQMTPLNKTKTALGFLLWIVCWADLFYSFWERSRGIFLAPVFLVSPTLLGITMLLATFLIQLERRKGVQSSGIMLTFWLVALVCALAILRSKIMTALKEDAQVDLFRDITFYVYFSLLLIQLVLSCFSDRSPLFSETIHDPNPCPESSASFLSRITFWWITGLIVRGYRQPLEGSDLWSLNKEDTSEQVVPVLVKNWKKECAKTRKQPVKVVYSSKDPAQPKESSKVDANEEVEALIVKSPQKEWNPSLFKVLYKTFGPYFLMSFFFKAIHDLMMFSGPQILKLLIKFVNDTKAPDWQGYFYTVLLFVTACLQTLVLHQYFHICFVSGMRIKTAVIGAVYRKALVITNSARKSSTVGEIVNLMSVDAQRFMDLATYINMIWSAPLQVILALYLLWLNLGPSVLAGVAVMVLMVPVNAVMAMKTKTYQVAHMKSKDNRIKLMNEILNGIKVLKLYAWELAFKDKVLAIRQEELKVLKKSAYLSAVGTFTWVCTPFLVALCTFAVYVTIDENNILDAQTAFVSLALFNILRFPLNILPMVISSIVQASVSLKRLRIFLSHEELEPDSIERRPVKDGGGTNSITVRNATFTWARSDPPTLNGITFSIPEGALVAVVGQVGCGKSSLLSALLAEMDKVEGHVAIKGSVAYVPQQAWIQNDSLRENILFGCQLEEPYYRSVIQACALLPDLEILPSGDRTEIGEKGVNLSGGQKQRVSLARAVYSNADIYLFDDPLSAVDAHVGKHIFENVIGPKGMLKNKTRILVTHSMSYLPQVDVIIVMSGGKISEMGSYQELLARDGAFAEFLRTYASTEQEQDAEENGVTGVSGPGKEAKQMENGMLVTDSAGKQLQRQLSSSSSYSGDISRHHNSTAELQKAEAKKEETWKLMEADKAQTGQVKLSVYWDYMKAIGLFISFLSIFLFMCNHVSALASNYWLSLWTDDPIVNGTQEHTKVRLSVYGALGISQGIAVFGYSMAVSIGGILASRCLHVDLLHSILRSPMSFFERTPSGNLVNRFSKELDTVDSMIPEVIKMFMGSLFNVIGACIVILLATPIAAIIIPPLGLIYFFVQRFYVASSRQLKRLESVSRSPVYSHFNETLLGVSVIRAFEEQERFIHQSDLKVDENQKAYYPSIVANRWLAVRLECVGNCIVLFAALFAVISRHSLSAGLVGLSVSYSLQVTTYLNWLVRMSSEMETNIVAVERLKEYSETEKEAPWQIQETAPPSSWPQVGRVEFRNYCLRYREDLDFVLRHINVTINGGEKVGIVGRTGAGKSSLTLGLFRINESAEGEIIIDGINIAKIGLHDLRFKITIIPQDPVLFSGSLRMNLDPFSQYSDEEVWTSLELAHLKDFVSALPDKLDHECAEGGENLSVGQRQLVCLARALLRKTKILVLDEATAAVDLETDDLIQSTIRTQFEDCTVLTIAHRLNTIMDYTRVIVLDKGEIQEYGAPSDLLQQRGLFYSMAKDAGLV

How did the “inhibition of cell growth by the oncolytic alone” value [1] turn out when `COc1cccc2c1C(=O)c1c(O)c3c(c(O)c1C2=O)C[C@@](O)(C(=O)CO)C[C@@H]3O[C@H]1C[C@H](N)[C@H](O)[C@H](C)O1` [doxorubicin] was run?
Its value is “does not usually inhibit the growth”.

What about the “inhibition of cell growth by the oncolytic alone” value [2] of the same compound?
Its value is “does not usually inhibit the growth”.
